In patent US20160235807A1, “AGONISTS OF GUANYLATE CYCLASE USEFUL FOR DOWNREGULATION OF PRO-INFLAMMATORY CYTOKINES” (SYNERGY PHARMACEUTICALS, INC., priority 2013, published 2016):
Entries after “also recorded” stand apart in the source; their conditions may differ. Bridge positions count the residues as written; N and C are the ends. Square brackets hold non-standard residues; d marks the D form. Peptide text beside a SMILES is read from it.

Tests used:
GC-C Receptor [1] = biological target: T1, GC-C Receptor (Homo sapiens, UniProt P25092); assay: Cyclic GMP stimulation assay in T84 cells; assay type: cell-based
T1 construct: endogenous in cells; host or cells: T84 human colon carcinoma cells
Experimental: (§1) The potency of test peptides to stimulate cGMP synthesis in T84 cells was assayed by a published procedure (Shailubhai et al. 2000). Briefly, confluent monolayers of T-84 cells in 24-well plates were washed twice with 250 μl of DMEM containing 50 mM HEPES (pH 7.4), pre-incubated at 37° C. for 10 min with 250 μl of DMEM containing 50 mM HEPES (pH 7.4) and 1 mM isobutylmethylxanthine (IBMX), followed by incubation with test peptide for 30 min. The medium was aspirated, and the reaction was terminated by the addition of 3% perchloric acid. Following centrifugation, and neutralization with 0.1 N NaOH, the resulting supernatant was used directly for measurements of intracellular cGMP using an ELISA kit (Caymen Chemical, Ann Arbor, Mich.). Results are expressed as pmol of cGMP/mg of protein in the cell extracts.

GC-C Receptor [2] = biological target: T1, GC-C Receptor; assay: cGMP stimulation assay in T84 cells in the presence of zaprinast (Example 2); assay type: cell-based
Experimental: Confluent monolayers of T84 cells in 24-well plates were pre-incubated with indicated amounts of SP-333 in the presence of zaprinast for 30 minutes at 37° C. Subsequently, the reaction was terminated by 3% perchloric acid and neutralized with 0.5N NaOH. Intracellular cGMP levels were determined in lysates using a ELISA kit (Cayman Chemical). All samples were analyzed in duplicates. Total protein was quantitated using Pierce BCA protein assay (Thermo Fisher Scientific).

T84 cells [3] = assay: Quantitative RT-PCR for transcripts in T84 cells; assay type: cell-based, human
Experimental: T-84 cells (˜10^7 cells) were treated with 1 μM SP-333 for 5 h. Subsequently, cDNA was prepared from total RNA using High Capacity RNA-to-cDNA Kit (Applied Biosystems, Carlsbad, Calif.) according to manufacturer's instructions. Quantitative Real-Time PCR amplification and analysis were carried out using Lightcycler 480 (Roche, Basel Switzerland), p65 and IKK-13 specific Taqman gene expression assays and Lightcycler 480 Probe master. All amplification assays were performed in duplicate employing 20 ng cDNA (based on input RNA). The total reaction volume was adjusted to 20 μL with appropriate amounts of TaqMan gene expression assays, Lightcycler 480 probe master and distilled water, then subjected to 45 PCR cycles using default cycling parameters. GAPDH transcript was used as endogenous control. The data generated were analyzed and expressed as target gene expression relative to endogenous control using comparative Cp method and 2^−ΔΔCp formula (comparative Cp values and advanced quantitative relative quantification method). TaqMan reagents were obtained from Applied Biosystems (Carlsbad, Calif.).
T-84 cells were treated with 1 μM SP-333 for 5 hours. Subsequently, cDNA was prepared from total RNA and subjected to quantitative Real-Time PCR using TaqMan reagents from Applied Biosystems.

LPS stimulated T84 cells = assay: Cytokines expression analysis (ELISA) in LPS stimulated T84 cells; assay type: cell-based, human; details: LPS 10 μg/ml 4 h, then SP-333 16 h
Experimental: To evaluate the effect of different concentrations of SP-333 on secretion of cytokines (IL-8 and TNF), 12-well plates seeded with 10^5 cells/well were used. At 85-90% confluence, cells were washed with DPBS and treated with or without LPS (10 μg/ml) for 4 h, followed by washing with phosphate buffered saline (PBS). SP-333 at 0, 0.01, 0.1, 1 and 10 μM) together with 500 μM of Zaprinast was added to the treated cells and incubated further for 16 h. The levels of IL-8 and TNF were quantified using human IL-8 and TNF ELISA development kits (Peprotech, Rocky Hill, N.J.) Each ELISA was performed in triplicate with cell-free supernatants from two independent experiments. The protein concentration of each well was assessed by Bio-Rad protein dye detection kit.

[4] = test system: myeloperoxidase (MPO) activity in colon tissues; assay: MPO activity in lysates from mid-colon tissues, DSS-induced colitis in BDF-1 mice; assay type: in vivo, mouse
Experimental: A total of 40 samples were chosen for analysis of MPO activity and Ki-67 labeling from the treatment groups that received SP-333, its vehicle control (0.1M phosphate buffer, pH 7) and the reference compound (5-ASA). A random number generator (www.random.org) was employed to select samples from these groups (7 from each of the SP-333-recipient groups and 6 from each of the vehicle and 5-ASA groups).
Myeloperoxidase activity in colonic tissue samples was performed according to the method described (Krawisc et al., 1984). Briefly, the rate of change in absorbance at 450 nm was recorded when 20 μl of tissue extract was incubated with […] of reaction buffer containing 0.26 mg/ml 0-dianisidine and 0.6 μl/ml H2O2. Each reaction was performed in triplicate. The rate of reaction was determined (initial slope) and normalized to protein concentration of sample.

[5] = assay type: in vitro ADME
Experimental: as §1
Plecanatide and SP-333 were incubated in simulated intestinal fluid (SIF) for 6-24 h. Inactivated SIF was used as a control. Following the treatment, samples were analyzed by HPLC by cGMP production in T84 cells. […] The active metabolite, SP-338 was characterized by MS and MS/MS and identified to be formed via removal of carboxyl terminal leucine possibly due to cleavage by carboxypeptidases.

T84 cells [6] = assay: Quantitative RT-PCR for transcripts in T84 cells; assay type: cell-based, human; remark: listed apart in the source
[7] = Non-clinical safety and toxicology studies; details: rodents and monkeys, oral
[8] = SP-333 1 μM, 5 h, compared to unstimulated T84 cells, FIG. 3D
[9] = T84 cells, compared to untreated cells, FIG. 16

T1 sequence (P25092 24-1073): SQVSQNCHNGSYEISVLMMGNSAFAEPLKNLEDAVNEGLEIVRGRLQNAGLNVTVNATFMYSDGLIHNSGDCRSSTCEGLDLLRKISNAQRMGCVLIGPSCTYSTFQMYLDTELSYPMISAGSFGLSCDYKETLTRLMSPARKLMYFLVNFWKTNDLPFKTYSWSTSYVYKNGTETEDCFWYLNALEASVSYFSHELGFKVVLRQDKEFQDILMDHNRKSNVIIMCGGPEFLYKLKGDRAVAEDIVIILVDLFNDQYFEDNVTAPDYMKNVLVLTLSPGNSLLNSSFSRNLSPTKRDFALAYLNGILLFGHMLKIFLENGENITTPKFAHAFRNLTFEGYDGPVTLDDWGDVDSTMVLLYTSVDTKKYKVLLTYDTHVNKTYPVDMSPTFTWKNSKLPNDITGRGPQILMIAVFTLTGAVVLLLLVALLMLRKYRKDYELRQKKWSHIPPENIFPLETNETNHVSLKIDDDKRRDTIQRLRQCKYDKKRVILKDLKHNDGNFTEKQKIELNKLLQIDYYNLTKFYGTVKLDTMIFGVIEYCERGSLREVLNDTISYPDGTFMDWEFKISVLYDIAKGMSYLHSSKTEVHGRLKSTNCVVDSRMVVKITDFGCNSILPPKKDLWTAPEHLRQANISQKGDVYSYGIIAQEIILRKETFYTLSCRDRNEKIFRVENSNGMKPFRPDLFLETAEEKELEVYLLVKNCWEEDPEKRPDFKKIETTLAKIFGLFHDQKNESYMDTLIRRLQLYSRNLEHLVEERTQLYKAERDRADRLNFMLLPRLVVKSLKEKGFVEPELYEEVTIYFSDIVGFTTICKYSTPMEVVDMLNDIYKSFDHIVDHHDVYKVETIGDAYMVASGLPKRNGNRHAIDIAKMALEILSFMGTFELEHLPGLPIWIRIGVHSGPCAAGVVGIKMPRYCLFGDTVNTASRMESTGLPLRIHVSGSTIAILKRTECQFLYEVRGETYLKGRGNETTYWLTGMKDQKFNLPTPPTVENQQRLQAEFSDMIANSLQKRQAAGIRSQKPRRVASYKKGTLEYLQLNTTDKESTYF

CC(C)C[C@@H]1NC(=O)[C@H](CCC(=O)O)NC(=O)[C@@H](NC(=O)[C@H](CCC(=O)O)NC(=O)[C@H](CC(=O)O)NC(=O)[C@H](N)CC(N)=O)CSSC[C@@H]2NC(=O)[C@H](C)NC(=O)[C@H](C(C)C)NC(=O)[C@H](CC(N)=O)NC(=O)[C@H](C(C)C)NC(=O)[C@H](CSSC[C@@H](C(=O)N[C@H](CC(C)C)C(=O)O)NC(=O)CNC(=O)[C@H]([C@@H](C)O)NC2=O)NC1=O [SP-333, dAsn^1-Asp^2-Glu^3-Cys^4-Glu^5-Leu^6-Cys^7-Val^8-Asn^9-Val^10-Ala^11-Cys^12-Thr^13-Gly^14-Cys^15-dLeu^16] (H-[dN]DECELCVNVACTGC[dL]-OH; disulfide 4-12, 7-15; N-terminus and C-terminus assumed)
potency to stimulate cGMP in T84 cells (GC-C Receptor [1]): dose dependent increase in cGMP | EC50 (GC-C Receptor [1]; 30 min with peptide, 1 mM IBMX): 283 nM | concentration at which cGMP synthesis approached a plateau (GC-C Receptor [2]; FIG. 14): 1 µM | cGMP production (GC-C Receptor [2]; FIG. 15): enhanced | reduction of transcript levels of IKK-13 (T84 cells [3]; [8]): approximately 50% | reduction of transcript levels of p65 (T84 cells [3]; [8]): approximately 50% | decrease in IKKβ expression (T84 cells [3]; [9]): 59% | decrease in p65 expression (T84 cells [3]; [9]): 55% | LPS stimulated production of IL-8 (LPS stimulated T84 cells): concentration dependent reversal | LPS stimulated production of TNF (LPS stimulated T84 cells): concentration dependent reversal | reduction of MPO activity ([4]; SP-333 0.05 mg/kg): ~50% | MPO activity ([4]; SP-333 0.05 mg/kg, p=0.001 vs DSS group (0.048±0.004)): 0.024±0.003 units/minute | MPO activity compared to DSS treated animals ([4]; SP-333 all doses, significant (p<0.05) except 0.5 mg/kg): significantly lower; also recorded: considerably reduced; also recorded: much lower | biological activity lost [5]: ~20% | biological activity retained [5]: retains most of its biological activity | transcripts of cell division cycle 25a (putative c-Myc target gene) (T84 cells [6]): reduced | transcripts of cyclin D1 (putative c-Myc target gene) (T84 cells [6]): reduced | transcripts of p53 (putative c-Myc target gene) (T84 cells [6]): reduced | Expression of Protein Kinase G I and II Transcripts (T84 cells [6]; FIG. 15): enhanced | decrease in Cyclin D1 expression (T84 cells [6]; FIG. 17): 58% | decrease in Survivin expression (T84 cells [6]; FIG. 17): 50% | decrease in c-Myc expression (T84 cells [6]; FIG. 17): 92% | expression of β-Catenin (T84 cells [6]; FIG. 17): no effect | decrease in c-Src expression (T84 cells [6]; compared to untreated cells, FIG. 16): 52% | non-clinical safety and toxicology [7]: orally-safe drug candidate
